The source of these data is patent US20250136652A1, “FUSION PROTEIN FOR TARGETING RECOMBINANT PROTEINS FOR DEGRADATION” (The Regents of the University of California, priority 2022, published 2025).

Assay [1] deals with STUD degradation of GFP (ubiquitin proteasome pathway). In words: Inhibitor assay: rescue of GFP fluorescence in Jurkat T cells expressing SynZip STUD and GFP target. In kind it is cell-based. Conditions: 5 hours; for GFP fluorescence rescue relative to DMSO vehicle control: cells express functional STUD and GFP target. As for the experimental part:
FIG. 3: STUD degradation of GFP is mediated by the cullins in UPP. Representative flow cytometry distributions of GFP fluorescence of Jurkat T cells expressing the SynZip STUD described in FIG. 2B treated with one of three drugs or a DMSO vehicle control. Distributions are representative of three independent experiments.
Using the 2 plasmid system as described above, we lentivirally transduce Jurkat T cells. 72 hours after removal of lentivirus, we treat these Jurkat T cells and an untransduced control cell line with either 5 μM of the proteasomal inhibitor MG-132, 1 μM of the cullin ring ligase inhibitor MLN4924, 100 nM of the lysosomal inhibitor Bafilomycin A1, or DMSO vehicle control and incubate at 37 C for 5 hours. […] FIG. 3.
Flow cytometry: All flow cytometry data was obtained using a LSR Fortessa (BD Biosciences). All assays were run in a 96-well round bottom plate (Fisher Scientific #08-772-2C). Samples were prepared by pelleting cells in the plate using centrifugation at 400×g for 4 minutes. Supernatant was then removed and 200 μL of PBS (UCSF Cell Culture facility) was used to wash cells. The cells were again pelleted as described above and supernatant was removed. Cells were resuspended in 120 μL of Flow buffer (PBS+2% FBS) and mixed by pipetting prior to flow cytometry assay.
Inhibitor Assays: 100,000 cells were plated in a 96 well round bottom plate with either 5 μM MG-132 (Sigma-Aldrich #M7449-200UL), 1 μM MLN4924 (Active Biochem #A-1139), 100 nM Bafilomycin A1 (Enzo Life Sciences #BML-CM110-0100), or DMSO vehicle control and incubated at 37 C for 5 hours. After incubation, cells were pelleted by centrifugation at 400×g for 4 minutes. Supernatant was then removed and cells were washed once with 200 μL PBS. Cells were pelleted again (400×g for 4 minutes) and resuspended in flow buffer (PBS+2% FBS) for assay by flow cytometry.

In assay [2] the test system is NALM6 target cells. Briefly: MLN4924 dose response: ON switch CAR lysis of NALM6 target cells. Conditions: MLN4924 1 μM to 0.015625 μM; 72 hours at 37 C; CD8+ T cells with antiCD19BBz CAR-SynZip and memSTUD. In kind it is cell-based, human. As for the experimental part: We engineer CD8+ primary human T cells that express an antiCD19BBz CAR fused to a SynZip and a STUD to recognizes the SynZip. As a control, the CD8+ primary human T cells that express the same CAR without the SynZip and the SynZip STUD were also engineered. Both these cell lines were cocultured and an untransduced (UnT) control with NALM6 target cells for 72 hours at 37 C in the presence of various concentrations of MLN4924. Lysis of target cells was calculated by each line relative to NALM6 cells cultured alone by flow cytometry.
CD8+ primary human T cells were engineered with an antiCD19BBz CAR fused to a SynZip and a memSTUD that binds the SynZip using the same plasmids outlined in FIG. 14A by lentiviral transduction. As a control, we also lentivirally transduce CD8+ primary human T cells with an antiCD19BBz and a SynZip memSTUD which cannot bind the CAR. These engineered cells and an untransduced control were cocultured with NALM6 target cells for 72 hours at 37 C in the presence of MLN4924 ranging from 1 μM to 0.015625 μM and a DMSO vehicle control. After coculture, target cell lysis was assayed by flow cytometry. Specific target cell lysis of each cell line relative to NALM6 cells cultured alone in the same conditions was then calculated.
Co-culture assays: For all assays, T cells and target cells were co-cultured at a 1:1 ratio with cell numbers varying per assay. […]

The test system of assay [3] is STUD knockdown of anti-CD19 4-1BB CD3zeta CAR. Briefly: MLN4924 rescue of STUD knockdown of CD19BBz CAR expression in CD8+ primary T cells. Conditions: 1 μM MLN4924, 5 hours, 37 C. In kind it is cell-based, human. As for the experimental part:
FIG. 4D. Plasmid in FIG. 4A is transduced into CD8+ primary T cells and anti-CD19 4-1BB CD3zeta CAR expression and activation is assayed. Left: Cullin inhibitor MLN4924 is added to engineered T cells to rescue degradation of CAR by STUD. […] Black bars represent each condition with DMSO vehicle control. Middle: Engineered T cells are cocultured with NALM6 target cells for 72 hours and lysis is measured by flow cytometry. Lysis is calculated relative to lysis of NALM6 cells cultured with UnT T cells. Right: Median fluorescence of T cell activation marker CD25 after coculture is measured by antibody stain for CD25 and flow cytometry.
Engineered CD8+ T cells expressing were cocultured with NALM6 target cells and measured activation of the CAR by quantifying target cell lysis and expression of the T cell activation marker CD25.
Inhibitor Assays: 100,000 cells were plated in a 96 well round bottom plate with either 5 μM MG-132 (Sigma-Aldrich #M7449-200UL), 1 μM MLN4924 (Active Biochem #A-1139), 100 nM Bafilomycin A1 (Enzo Life Sciences #BML-CM110-0100), or DMSO vehicle control and incubated at 37 C for 5 hours. After incubation, cells were pelleted by centrifugation at 400×g for 4 minutes. Supernatant was then removed and cells were washed once with 200 μL PBS. Cells were pelleted again (400×g for 4 minutes) and resuspended in flow buffer (PBS+2% FBS) for assay by flow cytometry. […]

For assay [4], the target named is GFP fused to a heterodimeric SynZip protein complementary to the binding domain on the STUD. In words: cell-based or functional assay.

Residues, ends and D or L forms follow the SMILES beside them. *: point of attachment. Cbz = O=C(OCc1ccccc1)*

Sequence of GFP fused to a heterodimeric SynZip protein complementary to the binding domain on the STUD (chain, as listed by the source): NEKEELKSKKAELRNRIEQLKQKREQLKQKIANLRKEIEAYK

With `CO/C1=C\C(C)=C\[C@@H](C)[C@@H](O)[C@@H](C)C/C(C)=C/C=C/[C@H](OC)[C@@H]([C@@H](C)[C@@H](O)[C@H](C)[C@@]2(O)C[C@@H](O)[C@H](C)[C@@H](C(C)C)O2)OC1=O` [Bafilomycin A1], in assay [1] (100 nM Bafilomycin A1, 37 C), the “GFP fluorescence change relative to DMSO vehicle control” value is on record as “No changes to GFP fluorescence”.
As for `CC(C)C[C@@H](C=O)NC(=O)[C@H](CC(C)C)NC(=O)[C@H](CC(C)C)NC(=O)OCc1ccccc1` [MG-132] (Cbz-Leu-Leu-Leu-aldehyde), in assay [1] (5 μM MG-132, 37 C), the “GFP fluorescence rescue relative to DMSO vehicle control” value is listed as “can indeed be rescued”.
In the case of `NS(=O)(=O)OC[C@@H]1C[C@@H](n2ccc3c(N[C@H]4CCc5ccccc54)ncnc32)C[C@@H]1O` [MLN4924], the “specific target cell lysis by CAR” value in assay [2] is “dose dependent”. Besides, the “rescue of STUD knockdown of CAR expression” value in assay [3] is “can rescue STUD knockdown of CAR expression”. The “GFP fluorescence rescue relative to DMSO vehicle control” value in assay [1] (1 μM MLN4924, 37 C) is reported as “can indeed be rescued”.

B1: synZIP STUD (Synthetic Targeter of Ubiquitination and Degradation) (designed binder)
chain: SIAATLENDLARLENENARLERDIANLERDLARLEREEAYFGSGSGSGSGSRRRG
In assay [4], B1 had a fold change of median normalized GFP fluorescence (GFP/tagBFP), flow cytometry, Jurkat T cells of 42 fold.
